{
  "source": "patent US20260309717A1",
  "about": "“PROXIMITY INDUCING SYSTEM AND USES THEREOF” (SORBONNE UNIVERSITE, priority 2022, published 2026)",
  "key": {"[1]": {"target": "T1, mCherry-^FIREtag / ^FIREmate-ECFP-Giantin (Halorhodospira halophila, UniProt P16113, A30V/C69G/D97P/F96I, form not given/G21E/G25R/K17N/M100R/M109L/Q41L/Q99S/S72T/T101G/V83A/Y94W/Y98T)", "T1 construct": "FIREmate-ECFP-Giantin(3131-3259) and mCherry-FIREtag in HeLa cells", "T1 sequence (P16113 1-114 A30V/C69G/D97P/F96I/G21E/G25R/K17N/M100R/M109L/Q41L/Q99S/S72T/T101G/V83A/Y94W/Y98T)": "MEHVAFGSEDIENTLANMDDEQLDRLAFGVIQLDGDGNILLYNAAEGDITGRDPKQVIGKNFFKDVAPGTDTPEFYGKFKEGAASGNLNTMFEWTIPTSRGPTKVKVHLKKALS", "test": "Recruitment of cytoplasmic protein to the Golgi apparatus, HeLa cells", "format": "cell-based", "details": "10 μM", "method": "FIGS. 6A-E illustrate the recruitment of cytoplasmic proteins to the Golgi apparatus with the proximity inducing system described herein. FIG. 6A is a representation of the experimental design wherein HeLa cells co-expressing mCherry-^FIREtag and ^FIREmate-ECFP-Giantin were treated with 10 µM of match (either HBR-2,5DM or HMBR), and imaged by time-lapse confocal microscopy. FIGS. 6B-C are graphs showing the temporal evolution of the FIRE signal detected upon addition at 0 min of HBR-2,5DM (match1-6B) or HMBR (match2-6C). Data represents the mean values±SD of 10 cells from n=3 independent experiments (6B, D), or of 12 cells from n=3 independent experiments (6C, E). FIGS. 6D-E are sets of representative confocal micrographs of cells before (0 min) and after (5 min) addition of HBR-2,5DM (match1-6D) or HMBR (match2-6E) (mCherry: ex/em 561/606-675 nm; FIRE: ex/em 488/508-570 nm; ECFP: ex/em 445/455-499 nm). […] Scale bars are 20 μm.\n(§1) The confocal micrographs were acquired on a Zeiss LSM 980 Laser Scanning Microscope equipped with a plan apochromat 63x/1.4 NA oil immersion objective. ZEN software was used to collect the data. The images were analyzed using Icy (2.4.0.0) and Fiji (Image J). In short, to track fluorescence signal in a specific organelle, a ROI (region of interest) was determined by masking the signal in the ECFP (Enhanced Cyan Fluorescent Protein) channel with the plug-in HK-means with the following parameters: intensity class equals 100, minimum object size (pixels or px) equals 500, maximum object size (px) equals 1500-3000. The signal intensity of the ROI was tracked over time for each channel by using plug-in Active Contours. The background signal was subtracted. Data were processed using GraphPad Prism v9.3.0.\nTo further evaluate the scope of the proximity inducing system described herein and show its versatility, ^FIREmate was anchored at the membrane of various organelles or cellular structures so that ^FIREmate faced the cytosol. ^FIREmate was thus fused: • to the N-terminus of the transmembrane domain (amino acid residues at positions 3131-3259) of Giantin for location at the cis-medial rims of the Golgi apparatus (FIG. 6A), • to the N-terminus of the transmembrane domain (amino acid residues at positions 100-134) of the cytochrome b5 (Cb5) for location at the endoplasmic reticulum membrane (FIG. 7A), and • to the C-terminus of the Lyn11 inner membrane targeting sequence for location at the plasma membrane (FIG. 8A).\nFor each construct, an ECFP was inserted between ^FIREmate and the other protein domain/sequence to monitor the localization of the resulting fusion protein (blue fluorescence). Each fusion protein was co-expressed in mammalian cells (HeLa cells or HEK293 cells as indicated) together with mCherry-^FIREtag (red fluorescence). […]"}, "[2]": {"target": "T2, mCherry-caged^FIREtag / ^FIREmate-ECFP-Giantin (Halorhodospira halophila, UniProt P16113, A30V/C69G/D97P/F96I, form not given/G21E/G25R/K17N/M100R/M109L/Q41L/Q99S/S72T/T101G/V83A/Y94W/Y98T)", "T2 construct": "mCherry-caged FIREtag (PYP 2-114 C69G cage) and FIREmate-ECFP-Giantin in HeLa cells", "T2 sequence (P16113 1-114 A30V/C69G/D97P/F96I/G21E/G25R/K17N/M100R/M109L/Q41L/Q99S/S72T/T101G/V83A/Y94W/Y98T)": "T1 sequence (P16113 1-114 A30V/C69G/D97P/F96I/G21E/G25R/K17N/M100R/M109L/Q41L/Q99S/S72T/T101G/V83A/Y94W/Y98T)", "test": "Recruitment of mCherry-caged^FIREtag to the Golgi, confocal microscopy, HeLa cells", "format": "cell-based", "details": "10 μM", "method": "FIGS. 11A-C illustrate the use of a caged proximity inducing system as described herein. FIG. 11A is a representation of the experimental design wherein HeLa cells co-expressing mCherry-caged^FIREtag and ^FIREmate-ECFP-Giantin were treated with 10 μM of match (i.e., HBR-2,5DM), and imaged by time-lapse confocal microscopy. FIG. 11B is a graph showing the temporal evolution of the FIRE signal detected upon addition of HBR-2,5DM at 0 min, either with ^FIREtag or with caged^FIREtag. Data represents the mean values±SD of 7 cells from n=3 independent experiments. FIG. 11C is a set of representative confocal micrographs of cells before (0 min) and after (9 min) addition of HBR-2,5DM (match1) (mCherry: ex/em 561/606-675 nm; FIRE: ex/em 488/508-570 nm; ECFP: ex/em 445/455-499 nm). […] Scale bars are 20 μm.\nas §1, with “ZEN software was used to collect the data.” left out, “The signal intensity of the ROI was tracked over time for each channel by using plug-in Active Contours. The background signal was subtracted. Data were processed using GraphPad Prism v9.3.0.” left out"}},
  "data": [
    {"smiles": "Cc1cc(/C=C2\\SC(=S)NC2=O)c(C)cc1O", "note": "[HBR-2,5DM, (Z)-5-(4-hydroxy-2,5-dimethylbenzylidene)-2-thioxo-1,3-thiazolidin-4-one]", "values": [
      {"measurement": "FIRE signal at the Golgi apparatus", "setting": "[1]", "value": "simultaneous appearance of green fluorescence"},
      {"measurement": "translocation of mCherry-^FIREtag to the Golgi apparatus", "setting": "[1]", "value": "rapid translocation of mCherry-^FIREtag to the organelle"},
      {"measurement": "kinetics of ternary assembly formation with caged^FIREtag, compared to ^FIREtag", "setting": "[2]", "value": "slower kinetics"},
      {"measurement": "recruitment of mCherry-caged^FIREtag to the Golgi", "setting": "[2]; 9 min", "value": "efficient recruitment of mCherry-caged^FIREtag to the Golgi"}
    ]}
  ]
}
